{"source": "paper PMC5238392", "about": "“Origin of anti-tumor activity of the cysteine-containing GO peptides and further optimization of their cytotoxic properties” (Scientific Reports, 2017)", "tested_on": "HT-1080 cells", "test": "carboxy-H2DCFDA time-dependent intracellular ROS, HT-1080", "assay_type": "cell-based, human", "conditions": "suspended HT-1080; 5 μM", "excerpt": "In broad terms, apoptosis is classified into two fundamental modes: mitochondrial pathway and death receptor pathway. In the former mechanism, apoptotic signals lead to a loss of mitochondrial membrane potential, termination of mitochondrial ATP synthesis, overproduction of reactive oxygen species (ROS) and their release into cytosol along with a number of pro-apoptotic proteins that are normally confined to the intermembrane space of the mitochondria. To determine whether this mechanism is relevant for GO-203-induced cell death, we have analyzed the time variation of mitochondrial membrane potential and cellular level of ROS over the time interval of 2 h following the addition of the peptide. […] The fluorescence was measured concurrently with the side angle light scatter.\nTo confirm this finding we have also used the carboxy-H2DCFDA probe of the general oxidative stress. […] The results of the ROS assay in HT-1080, where the intensity of fluorescence signal reflects the level of intracellular oxidants, are shown in Fig. 6B. […]\nThe cells were seeded into 35-mm Nunc culture dishes (Thermo Scientific, USA) at 1.2 × 10^5 cells per dish and allowed to attach for 24 h. […] After that GO-203 was added directly to the suspension and cell fluorescence was measured by flow cytometry at multiple time points during the following 2 hours. […] Cell fluorescence was then immediately measured by flow cytometry. […]"}
{"substance": "[R]9CQCRRKN [GO-203, in clinical trials]", "values": [{"measurement": "Time at which carboxy-H2DCFDA fluorescence (ROS) begins to diverge from control", "result": "80 to 90", "unit": "min"}, {"measurement": "Time at which elevated level of ROS is evident", "result": 120, "unit": "min"}]}
